Consider one sequence from patent US7807176B2, “Polypeptide promoting vascular endothelial cell growth” (Genomidea, Inc., priority 2004, dated 2010).

Entries after “also recorded” stand apart in the source; their conditions may differ.

Assay [1] relates to c-fos promoter. Description: c-fos promoter assay (c-fos-Luci luciferase). Conditions: FIG. 8. It counts as cell-based, bovine. The protocol: To further confirm the proliferation ability, an assay using a promoter of proto-oncogene c-fos, which is activated in the earliest stage of cell proliferation, was carried out. The gene c-fos-Luci having luciferase ligated under this promoter, and a candidate gene, were introduced in a weight ratio of 1:1 by lipofection into bovine vascular endothelial cells, and after 24 to 48 hours, the luciferase activity was measured.

In assay [2] the test system is HAEC. Description: MTS assay of endothelial cell proliferation with added peptide. As to conditions: for endothelial proliferation Increase [times]: MTS, Table 3. The class given is cell-based, human. The protocol:
F2 peptide was synthesized and then contacted in a varying amount with HAEC, and the ability thereof to proliferate the cells was examined by MTS assay. The MTS assay is a modification of the MTT assay, and is a method of measuring living cells based on a reaction of reducing tetrazolium salt (MTS) by living cells in culture, into a colored product formazan. Specifically, this assay is carried out as follows: • HAEC was inoculated onto a 96-well plate at a density of 750 cells/well. • 2 μl/well of each sample was added to 100 μl/well endothelial cell medium (1% FBS, without EGF). 2 μl/well was added every day (until Day 6) (the medium was not exchanged). • 20 μl measurement solution (Cell Titer 96 AQueous One Solution Cell Proliferation Assay (Promega)) was added to each well and mixed with 100 μl of the endothelial cell medium, and the old medium was removed by suction. A mixed suspension of the measurement solution and the cells was put in a volume of 120 μl/well and then incubated for 1 to 5 hours in a CO2 incubator. • The absorbance at 490 nm was measured with a plate reader.
The sample group (8 wells each) is as follows: • NC: Only EBM medium (endothelial cell medium) containing 1% FBS. The other samples were cultured by adding various peptides to this medium containing serum. • VEGF-A: Recombinant VEGF-A (KURABO) was added at a final concentration of 10 ng/ml. • F2-1: F2 peptide was added at a final concentration of 1 ng/ml. • F2-10: F2 peptide was added at a final concentration of 10 ng/ml. • F2-100: F2 peptide was added at a final concentration of 100 ng/ml. • F2-1000: F2 peptide was added at a final concentration of 1000 ng/ml.

Assay [3] has as its system HEAC endothelial cells. In words: Endothelial cell migration, modified Boyden chamber. It counts as cell-based, human. As to conditions: for migration % Increase: 4 hours. The protocol: A polyvinyl pyrrolidone (PVP)-free polycarbonate membrane having […] (Neuro Probe Inc., Gaithersburg, Md.) was coated overnight with 0.1% gelatin and then washed with phosphate buffered saline to remove an excess of the gelatin coating. Then, 28 μl growth factor-free EBM2 medium supplemented with 1% FBS was arranged in a lower chamber, and the membrane was arranged on the lower chamber. […] The Boyden chamber was incubated at 37° C. for 4 hours. After incubation, the membrane was removed and the cells on the upper side of the membrane were removed. The cells on the lower side of the membrane were stained with Diff-Quick (Sysmex, Hyogo Pref., JP). The cells in each of randomly selected 8 visual fields (×100) were counted.

Assay [4] concerns fibroblast growth factor (FGF-2) mRNA. In words: Growth factor mRNA expression level: FGF-2. The class given is cell-based.
Assay [5] concerns endothelial nitric oxide synthase (eNOS) mRNA. In words: Growth factor mRNA expression level: eNOS. It counts as cell-based.
For assay [6], the system named is connective tissue growth factor (CTGF) mRNA. Description: Growth factor mRNA expression level: CTGF. It counts as cell-based.
Assay [7] has as its system ERK (extracellular signal-related kinase). In words: Effect on ERK activity. As to conditions: data are not shown.
Assay [8] deals with phosphatidyl inositol-3-kinase/Akt (PI3K/Akt). Description: Effect on PI3K/Akt activity. Conditions: data are not shown.
The test system of assay [9] is Human endothelial cells. In words: Test Example 2: growth of endothelial cells. It counts as cell-based. Conditions: 1, 10 and 100 ng/ml; Test Example 2, present tense. The protocol: Human endothelial cells are sensitized with the HVJ envelope vector and then cultured in the presence or absence of human F2 peptide added externally (1, 10 and 100 ng/ml), to determine the increase (%) of the number of cells. […] Separately, endothelial cells sensitized with the HVJ envelope vector (concentration: 10 μg/ml) are cultured and an increase in the number of cells is measured to determine percentage increase (%). […] Further, the endothelial cells sensitized with the HVJ envelope vector are cultured in the presence or absence of rabbit anti-human F peptide antibody, and then an increase in the number of cells is measured to determine percentage increase (%).

With “MLSLIFLHRLKSMRKRLDRKLRFWHRKNYP (listed as Homo sapiens) [F2 peptide]”, the “activity in c-fos promoter assay of gene fragments in pCDNA3.1” value in assay [1] is “same activity as that of VEGF”. Further, the “endothelial proliferation Increase [times]” value in [2] (100 ng/ml) is given as 1.23 times; in [2] (1 μg/ml), 1.475 times. In assay [2] (F2 peptide 1 to 1000 ng/ml added every day until Day 6, VEGF-A 10 ng/ml, FIG. 9), the “cell proliferation ability (MTS assay, absorbance at 490 nm)” value is on record as “recognized in a dose-dependent manner, similar to VEGF protein; also recorded: stronger activity of enhancing proliferation of HEAC than VEGF”. For the same sequence, the figures for the “migration % Increase” value in assay [3] (10 ng/ml), in assay [3] (100 ng/ml) and in [3] (1 μg/ml) were 88.5%, 102.5% and 129.8%, respectively. Moreover, in assay [3] (F2 0.01 to 1 μg/ml, control peptide 1 μg/ml, VEGF 50 ng/ml, FIG. 10), the “cell migration activity (in words)” value was “significantly increased in a concentration-dependent manner; also recorded: higher than that of VEGF (50 ng/ml)”. Also, in [4], the “effect on mRNA level of FGF-2 (in words)” value is recorded as “did not have any effect”. Also, the “FGF-2 mRNA Increased Amount [times]” value in assay [4] (24 hrs) turned out to be 5.7 times; in assay [4] (48 hrs), 6.0 times; in [4] (72 hrs), 9.4 times. In addition, the “effect on mRNA level of eNOS (in words)” value in assay [5] was “did not have any effect”. The “eNOS mRNA Increased Amount [times]” value in assay [5] (24 hrs) is 0.1 times; in assay [5] (48 hrs), 6.1 times; in assay [5] (72 hrs), 0.7 times. Besides, the “effect on mRNA level of CTGF (in words)” value in [6] is given as “did not have any effect”. Moreover, the “CTGF mRNA Increased Amount [times]” value is 0.2 times in [6] (24 hrs), 1.1 times in [6] (48 hrs) and 0.5 times in assay [6] (72 hrs). Also, the “effect on ERK activity” value in assay [7] was “did not have any direct effect”. In addition, in [8], the “effect on PI3K/Akt activity” value was “did not have any direct effect”. Besides, in assay [9], the “growth of endothelial cells with externally added peptide” value is “growth of endothelial cells is promoted”.
